# Measured values reported in ChEMBL document CHEMBL1146649, “New highly active taxoids from 9 beta-dihydrobaccatin-9,10-acetals. Part 5” (2004).
# How the values were obtained:
# Mus musculus [1] = assay: Maximum rate of body weight loss after intravenous administration of 11.9 mg/kg of compound in mice; <0 indicates no weight loss; format: functional
# Mus musculus [2] = assay: Maximum rate of body weight loss after intravenous administration of 17.8 mg/kg of compound in mice; format: functional
# Mus musculus [3] = assay: Maximum rate of body weight loss after peroral administration of 17.8 mg/kg of compound in mice; format: functional; settings: route oral
# Mus musculus [4] = assay: Maximum rate of body weight loss after peroral administration of 26.7 mg/kg of compound in mice; format: functional; settings: route oral
# Mus musculus [5] = assay: Effective dose of intravenously administered compound against B16 melanoma BL6 cells implanted into mice; range is 11.9-17.8; format: functional; settings: B16, iv
# Mus musculus [6] = assay: Maximum rate of body weight loss after peroral administration of 7.9 mg/kg of compound in mice; format: functional; settings: route oral
# B16 [7] = assay: Antitumor activity of 11.9 mg/kg of intravenously administered compound against B16 melanoma BL6 cells implanted into mice, value reported is percent compared to control; format: functional, Mus musculus; settings: route intravenous
# B16 [8] = assay: Antitumor activity of 11.9 mg/kg of perorally administered compound against B16 melanoma BL6 cells implanted into mice, value reported is percent compared to control; format: functional, Mus musculus; settings: route oral
# Mus musculus [9] = assay: Antitumor activity of 17.8 mg/kg of intravenously administered compound against B16 melanoma BL6 cells implanted into mice, value reported is percent compared to control; format: functional; settings: route intravenous
# B16 [10] = assay: Antitumor activity of 17.8 mg/kg of perorally administered compound against B16 melanoma BL6 cells implanted into mice, value reported is percent compared to control; format: functional, Mus musculus; settings: route oral
# Mus musculus [11] = assay: Antitumor activity of 26.7 mg/kg of perorally administered compound against B16 melanoma BL6 cells implanted into mice, value reported is percent compared to control; format: functional; settings: route oral
# Mus musculus [12] = assay: Antitumor activity of 7.9 mg/kg of intravenously administered compound against B16 melanoma BL6 cells implanted into mice, value reported is percent compared to control; format: functional; settings: route intravenous
# Mus musculus [13] = assay: Antitumor activity of 7.9 mg/kg of perorally administered compound against B16 melanoma BL6 cells implanted into mice, value reported is percent compared to control; format: functional; settings: route oral
# Mus musculus [14] = assay: Maximum rate of body weight loss after intravenous administration of 7.9 mg/kg of compound in mice; format: functional
# Mus musculus [15] = assay: Maximum rate of body weight loss after peroral administration of 11.9 mg/kg of compound in mice; <0 indicates no weight loss; format: functional; settings: route oral
# Mus musculus [16] = assay: Effective dose of perorally administered compound against B16 melanoma BL6 cells implanted into mice; range is 11.9-17.8; format: functional; settings: B16, po
# Mus musculus [17] = assay: Number of mice died at 11.9 mg/kg of intravenous dose, among the total 6 mice tested; format: functional
# Mus musculus [18] = assay: Number of mice died at 11.9 mg/kg of peroral dose, among the total 6 mice tested; format: functional; settings: route oral
# Mus musculus [19] = assay: Number of mice died at 17.8 mg/kg of intravenous dose among the total 6 mice tested; format: functional
# Mus musculus [20] = assay: Number of mice died at 17.8 mg/kg of peroral dose among the total 6 mice tested; format: functional; settings: route oral
# Mus musculus [21] = assay: Number of mice died at 26.7 mg/kg of intravenous dose of compound among the total 6 mice tested; format: functional
# Mus musculus [22] = assay: Number of mice died at 26.7 mg/kg of peroral dose of compound among the total 6 mice tested; format: functional; settings: route oral
# Mus musculus [23] = assay: Number of mice died at 7.9 mg/kg of intravenous dose of compound among the total 6 mice tested; format: functional
# Mus musculus [24] = assay: Number of mice died at 7.9 mg/kg of peroral dose of compound among the total 6 mice tested; format: functional; settings: route oral
# P388 = assay: Concentration required to inhibit mouse P388 cell line growth by 50% at 72 hr continuous exposure; format: functional; settings: P388, 72 h
# PC-6 [25] = assay: Concentration required to inhibit human PC-6 cell line growth by 50% at 72 hr continuous exposure; format: functional; settings: PC-6, 72 h
# PC-6 [26] = assay: Concentration required to inhibit human PC-6/VP1-1 cell line growth by 50% at 72 hr exposure; format: functional; settings: PC-6, 72 h
# PC-12 = assay: Concentration required to inhibit human PC-12 cell line growth by 50% at 72 hr continuous exposure; format: functional; settings: PC-12, 72 h
# PC-6 [27] = assay: Concentration required to inhibit human PC-6/VCR29-9 cell line growth by 50% at 72 hr exposure; format: functional; settings: PC-6, 72 h
smiles,measurement,setting,value
CC(=O)O[C@@]12CO[C@@H]1CC[C@@]1(C)[C@@H]3O[C@H](CN4CCOCC4)O[C@@H]3C3=C(C)[C@@H](OC(=O)[C@H](O)[C@@H](NC(=O)OC(C)(C)C)c4cccc(F)n4)C[C@@](O)([C@@H](OCc4ccccc4)[C@@H]12)C3(C)C,BWLmax,Mus musculus [1],<0%
same,BWLmax,Mus musculus [2],11.9%
same,BWLmax,Mus musculus [3],2.2%
same,BWLmax,Mus musculus [4],16.6%
same,ED50,Mus musculus [5],17.8 mg/kg
same,BWLmax,Mus musculus [6],0.8%
same,IR,B16 [7],85.7%
same,IR,B16 [8],65.9%
same,IR,Mus musculus [9],94.7%
same,IR,B16 [10],88.5%
same,IR,Mus musculus [11],97.4%
same,IR,Mus musculus [12],28.6%
same,IR,Mus musculus [13],-16.3%
same,BWLmax,Mus musculus [14],0.3%
same,BWLmax,Mus musculus [15],<0%
same,ED50,Mus musculus [16],17.8 mg/kg
same,Mortality,Mus musculus [17],0
same,Mortality,Mus musculus [18],0
same,Mortality,Mus musculus [19],0
same,Mortality,Mus musculus [20],0
same,Mortality,Mus musculus [21],6
same,Mortality,Mus musculus [22],1
same,Mortality,Mus musculus [23],0
same,Mortality,Mus musculus [24],0
same,GI50,P388,0.2 ng/mL
same,GI50,PC-6 [25],0.29 ng/mL
same,GI50,PC-6 [26],13.7 ng/mL
same,GI50,PC-12,0.14 ng/mL
same,GI50,PC-6 [27],0.96 ng/mL
